The record followed here is PubChem BioAssay (NCI).

Values joined by “and” are separate entries in the source; they are usually repeats but may differ in a detail not shown here. Identical values can stand only once.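 Method: 48-hour compound exposure of cells in 96-well plates, five concentrations, linear interpolation of endpoints. GI50 = concentration required for 50% inhibition of growth. Definition used: TGI = concentration required for complete inhibition of growth.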 A value given as a limit tells only on which side of the number the result lay.

Among the test systems are UACC-257 melanoma; SK-OV-3 ovarian; LOX IMVI melanoma; SN12C renal; HS 578T breast; U251 CNS; OVCAR-8 ovarian; A549 NSCLC; OVCAR-3 ovarian; CAKI-1 renal.
What all share (assay): inhibition of tumour cell growth, NCI panel, 48 h

On to `COc1ccc(C2=N[C@@H](c3ccc(Cl)cc3)[C@@H](c3ccc(Cl)cc3)N2C(=O)N2CCNC(=O)C2)c(OC(C)C)c1`, for which the GI50 is 13.2 µM and 4.26 µM and 3.98 µM in the assay on UACC-257 melanoma; 16.8 µM and 15.9 µM and 15.4 µM in the assay on SK-OV-3 ovarian; 13.8 µM and 4.07 µM and 2.81 µM with LOX IMVI melanoma; 15.6 µM and 14.9 µM and 14.1 µM with SN12C renal; 15.6 µM and 17.3 µM and 17 µM in the assay on HS 578T breast; 13.7 µM and 14.8 µM and 16.2 µM in the assay with U251 CNS. Also, the GI50 with OVCAR-8 ovarian is 15.2 µM and 15.1 µM and 14.8 µM; in the assay with A549 NSCLC, 13.3 µM and 3.9 µM and 3.65 µM; with OVCAR-3 ovarian, 14 µM and 13.1 µM and 13.7 µM; in the assay on CAKI-1 renal, 11.7 µM and 1.63 µM and 2.35 µM. The TGI was 26.5 µM and 19.3 µM and 18.3 µM with UACC-257 melanoma; 30.8 µM and 30.9 µM and 30.4 µM in the assay on SK-OV-3 ovarian; 27.4 µM and 19.3 µM and 18.3 µM in the assay with LOX IMVI melanoma; 34 µM and 29.9 µM and 28.7 µM in the assay on SN12C renal; 44 µM and 56 µM and 49.3 µM in the assay with HS 578T breast; 27.2 µM and 29.5 µM and 31.6 µM in the assay on U251 CNS. Further, the TGI in the assay on OVCAR-8 ovarian is 31.1 µM and 30.9 µM and 30.1 µM; with A549 NSCLC it was 27.4 µM and 18.4 µM and 17.4 µM; in the assay with OVCAR-3 ovarian, 27.2 µM and 26 µM and 26.8 µM; in the assay on CAKI-1 renal, 24.7 µM and 12.9 µM and 14.5 µM.
Turning to `COc1ccc(-n2cc(-c3cc(OC)c(OC)c(OC)c3)[nH]c2=S)cc1Cl`, the GI50 with UACC-257 melanoma was more than 100 µM; in the assay on SK-OV-3 ovarian, 17 µM; in the assay on LOX IMVI melanoma, 6.12 µM; in the assay on SN12C renal, 46.7 µM; with HS 578T breast it was 17.5 µM; in the assay on U251 CNS, 20 µM. Moreover, the GI50 with OVCAR-8 ovarian was 50.2 µM; with A549 NSCLC, 65.5 µM; in the assay on OVCAR-3 ovarian, 26.1 µM; in the assay with CAKI-1 renal it was 4.86 µM. For the same compound, the TGI in the assay on UACC-257 melanoma was more than 100 µM; in the assay with SK-OV-3 ovarian, 48.3 µM; in the assay on LOX IMVI melanoma, more than 100 µM; in the assay with SN12C renal it was more than 100 µM; in the assay on HS 578T breast, 60 µM; in the assay with U251 CNS it was 50.7 µM. The TGI was more than 100 µM with OVCAR-8 ovarian, more than 100 µM in the assay on A549 NSCLC, more than 100 µM in the assay on OVCAR-3 ovarian and 33.7 µM in the assay on CAKI-1 renal.
